Data as given in patent US20210087217A1, “NUCLEOTIDE HEMI-SULFATE SALT FOR THE TREATMENT OF HEPATITIS C VIRUS” (Atea Pharmaceuticals, Inc., priority 2017, published 2021).
Where a name gives a salt, the structure may show the parent alone.

Experiments:
[1] = Single ascending dose study of Compound 2 in GT1-HCV infected patients (Part B): safety, tolerability, pharmacokinetic; format: in vivo, human
Experimental: Subjects in Part B received a single dose of Compound 2 in the fasting state. Patients were confined to the clinic from Day −1 to Day 6.
Part B was initiated after the safety (through Day 5) and plasma pharmacokinetic (through 24 h) data review from Cohort 3a in Part A. Available safety data (through Day 5) and pharmacokinetic data (through 24 h) was reviewed for the first cohort in Part B (Cohort 1b) before enrolling subsequent Part B cohorts. Subsequent Part B cohorts were only dosed following review of available safety and pharmacokinetic data from the respective doses in Part A as well as available safety (through Day 5) from the prior Part B cohorts.
Patients infected with HCV were treatment-naïve, non-cirrhotic GT1-infected subjects with a viral load of ≥5 log10 IU/mL.
Pharmacokinetic of Compound 1 and nucleoside metabolite 1-7 were measured following the single dose of Compound 2. […] Values are reported as mean±SD, except or Tmax where median (range) is reported.
Plasma exposure of Compound 1 was dose-related while exposure of metabolite 1-7 was dose-proportional.

HCV RNA (GT1-HCV) = assay: Plasma HCV RNA reduction in GT1-HCV infected patients (Part B); format: in vivo
Experimental: Plasma HCV RNA determinations were performed through the use of a validated commercial assay. Baseline was defined as the mean of Day −1 and Day 1 (pre-dose). […] The mean maximum HCV RNA reduction 24 hours post-dose following a single 300 mg dose was 1.7 log10 IU/mL and this compares to a-2 log10 IU/mL reduction after 1 day of 400 mg of sofosbuvir monotherapy in GT1a HCV-infected subjects. The mean maximum HCV RNA reduction 24 hours post-dose following a single 100 mg dose was 0.8 log10 IU/mL. The mean maximum HCV RNA reduction was 2.2 log10 IU/mL following a single 400 mg dose.

[2] = Part B, GT1-HCV infected patients

CNc1nc(N)nc2c1ncn2[C@@H]1O[C@H](CO[P@@](=O)(N[C@@H](C)C(=O)OC(C)C)Oc2ccccc2)[C@@H](O)[C@@]1(C)F [Compound 2, hemi-sulfate salt of isopropyl((S)-(((2R,3R,4R,5R)-5-(2-amino-6-(methylamino)-9H-purin-9-yl)-4-fluoro-3-hydroxy-4-methyltetrahydrofuran-2-yl)methoxy)(phenoxy)phosphoryl)-L-alaninate]
Intensity of adverse effects [1, 2]: mild to moderate | Serious adverse events [1, 2]: No serious adverse events | Time within which Compound 1 was absorbed and metabolized ([1]; all cohorts from Part B, single dose of Compound 2): ≤ 8 h | Tolerability ([1]; hepatitis C infected patients, single oral dose): well tolerated | Plasma exposure of Compound 1 versus dose ([1]; single dose of Compound 2): dose-related | Plasma exposure of metabolite 1-7 versus dose ([1]; single dose of Compound 2): mostly dose-proportional | Mean maximum HCV RNA reduction (HCV RNA (GT1-HCV); 24 hours post-dose, single 100 mg dose): 0.8 log10 IU/mL | Mean maximum HCV RNA reduction (HCV RNA (GT1-HCV); 24 hours post-dose, single 300 mg dose): 1.7 log10 IU/mL | Mean maximum HCV RNA reduction (HCV RNA (GT1-HCV); single 400 mg dose): 2.2 log10 IU/mL
